The text below walks through data of ChEMBL document CHEMBL1201862, “PubChem BioAssay data set” (2004).

Active and inactive are the calls of the source.

The target of experiment [1] is Disintegrin and metalloproteinase domain-containing protein 17 (Homo sapiens, UniProt P78536). Nature of the experiment: ADAM17 protease inhibitors, dose response, counter-screen for ADAM10 exosite inhibitor project, biochemical, quenched FRET substrate (AID 743253). Background: The purpose of a counterscreen is to sort out artefacts and off-target activity.
Experiment [2] is described as follows: ADAM10 inhibitors, peptide cleavage, dose response, biochemical, QFRET (AID 743254).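 Also: ADAM10 enzyme with the DM2 quenched FRET peptide as substrate; EDANS fluorescence gain as the protease cuts the substrate; inhibitor potency against ADAM10 proteolytic activity.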
A short description of experiment [3]: HEK293 Cytotoxicity Assay Measured in Cell-Based System Using Plate Reader - 7071-01_Inhibitor_Dose_CherryPick_Activity_Set2. Format: functional.
In experiment [4] the test system is HEK293. Nature of the experiment: HEK293T cell cytotoxicity, dose response, cytotoxicity control, ATP luminescence, cherry-pick samples (AID 687005).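 Also: cells exposed to compound for 48 hours.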 Format: functional, cell-based. To be noted: Homo sapiens.
Experiment [5] in a line: A375 melanoma cell cytotoxicity, dose response, counter-screen for MITF inhibitor project, CellTiter-Glo luminescence, dry powder, set 2 (AID 624489).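 Also: actives are compounds lowering A375 viability meaning general cytotoxicity.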 Format: functional, cell-based. To be noted: A-375.
The nature of experiment [6]: A375 melanoma cell viability loss, dose response, counter-screen for MITF inhibitor project, CellTiter-Glo luminescence, dry powder, set 4 (AID 624364).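 Also: A375 melanoma cells are MITF independent so this is a counter screen.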 The class given is functional, cell-based. Particulars: A-375.
A short description of experiment [7]: Luminescence Cell-Based Dose Response HTS to Identify Inhibitors of 5'UTR Stem-Loop Driven Prion Protein mRNA Translation in H4 Neuroglioblastoma Cells. [Related pubchem assays: 1827 (Project Summary), 1813 (Primary HTS)]. The class given is functional.
A short description of experiment [8]: A549 cell cytotoxicity, dose response, cytotoxicity control, plate reader, cherry-pick, antagonist series (AID 743412). Format: functional, cell-based.
Experiment [9] in a line: LGR2 antagonists, dose response, cell-based, HEK293, CRE-luciferase reporter, cherry pick, set 2 (AID 743343).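 Also: transfected cells were stimulated with diluted bursicon conditioned medium after compound addition.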 The class given is functional. For orientation: A reporter such as luciferase makes a cellular process visible.
A short description of experiment [10]: inhibitors of SNCA 5'UTR-driven reporter translation, confirmation, H4 neuroglioma cells, luminescence (AID 1988). The class given is functional, cell-based.
Experiment [11] is described as follows: inhibitors of firefly luciferase expression or activity, dose response, H4 neuroglioma cells, luminescence (AID 1990). Format: functional, cell-based.
Experiment [12] concerns the target T1, Heat shock factor protein 1 (Mus musculus, UniProt P38532).
T1 sequence (P38532 whole entry): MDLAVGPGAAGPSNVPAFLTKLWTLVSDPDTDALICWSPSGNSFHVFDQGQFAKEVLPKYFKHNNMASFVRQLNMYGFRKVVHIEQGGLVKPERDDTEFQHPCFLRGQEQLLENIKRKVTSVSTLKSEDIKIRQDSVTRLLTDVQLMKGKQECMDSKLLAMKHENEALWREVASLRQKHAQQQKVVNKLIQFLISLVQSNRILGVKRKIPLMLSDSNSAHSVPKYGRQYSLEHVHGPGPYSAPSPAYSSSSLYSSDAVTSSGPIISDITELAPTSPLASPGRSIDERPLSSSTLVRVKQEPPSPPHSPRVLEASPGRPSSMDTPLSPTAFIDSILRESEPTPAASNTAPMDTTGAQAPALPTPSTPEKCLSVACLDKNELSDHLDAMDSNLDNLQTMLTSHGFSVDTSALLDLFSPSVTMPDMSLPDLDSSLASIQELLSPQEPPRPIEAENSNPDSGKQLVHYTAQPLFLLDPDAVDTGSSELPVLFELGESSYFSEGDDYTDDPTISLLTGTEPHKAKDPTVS
Nature of the experiment: inhibition of MG132-induced HSE-luciferase signal, confirmation, cell-based, NIH3T3, luminescence, dose retest (AID 2382).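 Also: NIH3T3 fibroblasts with HSF1-driven luciferase reporter stressed by proteasome inhibitor MG132; luminescence from HSF1-driven luciferase expression after 8 hours of MG132 stress.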 The class given is functional.

A short description of experiment [13]: HepG2 cell cytotoxicity, dose response, cytotoxicity control, plate reader, cherry-pick, antagonist series (AID 743416). The class given is functional, cell-based.
The nature of experiment [14]: MC4R antagonists, dose response, counter-screen for LGR2 antagonist project, cell-based, plate reader, cherry pick (AID 743444).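 Also: transfected HEK 293 cells stimulated with alpha-MSH peptide; potency of inhibitors of the alpha-MSH evoked signal.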 The class given is functional.
Experiment [15] in a line: HEK293 cell cytotoxicity, dose response, cytotoxicity control, plate reader, cherry-picked samples (AID 743446). Format: functional, cell-based.
In experiment [16] the test system is HEK293. Nature of the experiment: inhibitors of LMP1-driven NF-kB reporter, dose response, cell-based, HEK293, luciferase, cherry-pick (AID 588343). Particulars: Homo sapiens. Format: functional.

Sequence of Disintegrin and metalloproteinase domain-containing protein 17 (P78536 whole entry, the tested form may be a part): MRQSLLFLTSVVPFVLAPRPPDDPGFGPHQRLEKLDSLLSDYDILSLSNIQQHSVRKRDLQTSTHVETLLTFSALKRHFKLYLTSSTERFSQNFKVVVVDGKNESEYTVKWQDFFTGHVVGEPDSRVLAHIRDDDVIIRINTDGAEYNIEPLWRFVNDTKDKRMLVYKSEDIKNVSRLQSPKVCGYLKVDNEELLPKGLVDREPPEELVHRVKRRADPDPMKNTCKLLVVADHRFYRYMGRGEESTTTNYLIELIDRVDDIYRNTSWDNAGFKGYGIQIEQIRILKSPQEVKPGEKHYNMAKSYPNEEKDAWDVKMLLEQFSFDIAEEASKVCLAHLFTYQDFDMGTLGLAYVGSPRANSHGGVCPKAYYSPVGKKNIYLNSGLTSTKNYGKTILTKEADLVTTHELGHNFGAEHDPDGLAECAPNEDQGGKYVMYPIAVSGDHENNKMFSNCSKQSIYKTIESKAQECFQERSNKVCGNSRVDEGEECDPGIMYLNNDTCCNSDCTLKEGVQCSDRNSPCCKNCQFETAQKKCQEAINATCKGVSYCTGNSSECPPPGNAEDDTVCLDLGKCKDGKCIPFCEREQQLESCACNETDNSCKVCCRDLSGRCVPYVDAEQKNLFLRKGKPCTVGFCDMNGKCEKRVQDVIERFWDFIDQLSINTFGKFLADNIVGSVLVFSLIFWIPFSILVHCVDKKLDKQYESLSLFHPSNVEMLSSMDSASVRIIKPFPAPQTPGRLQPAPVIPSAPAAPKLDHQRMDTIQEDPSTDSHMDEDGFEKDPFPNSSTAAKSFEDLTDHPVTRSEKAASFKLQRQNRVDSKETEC

The term IC50 denotes the point on the concentration scale where inhibition reaches its midpoint. In the case of `CCC(=O)N(Cc1ccco1)c1nc(C(=O)Nc2ccc(Cl)cc2)c(C)s1`, the IC50 in [1] and in experiment [2] was > 69.5 µM (inactive) throughout.
One may read the AC50 as the concentration giving half of the maximal activity seen. `C[C@H](CO)N1C[C@H](C)[C@@H](CN(C)Cc2ccc(Oc3ccccc3)cc2)Oc2ccc(NC(=O)Nc3ccc4c(c3)OCO4)cc2C1=O`: the AC50 (in experiment [3]; in the experiment with HEK293 [4]) was 26.4 µM (active) throughout.
Turning to `COc1cc(/C=N/OCC(=O)Nc2ccc(OC(F)F)cc2)ccc1OCc1ccccc1`, the IC50 in experiment [1] and in [2] was > 69.5 µM (inactive) each time.
As for `O=C(NC1=C(c2ccc(OC(F)(F)F)cc2)C(=O)c2ccccc2C1=O)c1ccco1`, the AC50 was 21.1 µM (active) in experiment [5] and 32.2 µM (active) in [6].
Usually EC50 stands for the concentration giving half of the maximal effect. As for `O=C(c1ccc(-c2nc3ccccc3s2)s1)N1CCOCC1`, the half-maximal effective concentration (EC50) is 54 µM (active) in [7], 0.887 µM (active) in experiment [10], 1.42 µM (active) in experiment [11] and 1.07 µM (active) in [12]. Moreover, the AC50 in experiment [8] was > 52 µM (inactive); in [9], 1.49 µM (active); in experiment [13], > 52 µM (inactive); in experiment [14], 2.04 µM (active); in experiment [15] it was 51.4 µM (active).
Take `Cc1ccnc(NC(=O)c2ccc(C(=O)c3ccccc3)cc2)c1`: the AC50 is > 52 µM (inactive) in [8]; 7.49 µM (active) in [9]; 3.28 µM (active) with HEK293 [16]; > 52 µM (inactive) in experiment [13]; 5.18 µM (active) in experiment [14]; 31.2 µM (active) in experiment [15].
